Data from article PMC11481871, “Discovery of GuaB inhibitors with efficacy against Acinetobacter baumannii infection” (mBio, 2024).
Values after ≈ are worked out from the molar mass of the structure shown. Like-named read-outs stand apart in the source and are kept apart here.

Legend:
[1] = test system: A. baumannii 19606 (wild-type); experiment: microbe, parasite or virus in culture; format: cell-based, Acinetobacter baumannii; conditions: for MIC: Acinetobacter baumannii
Mycobacterium avium = experiment: MIC, CLSI microdilution; format: cell-based; conditions: 336 h; Mycobacterium avium (ATCC25291); 7H9 + OADC, 14 days
Proteus mirabilis = experiment: MIC, CLSI microdilution; format: cell-based; conditions: 20 h; Proteus mirabilis (ATCC29906); M9 + casamino acids + glucose
[2] = test system: Stenotrophomonas maltophilia; experiment: MIC, CLSI microdilution; format: cell-based; conditions: 20 h; Stenotrophomonas maltophilia (ATCC700267); M9 + casamino acids + glucose
Acinetobacter baumannii = experiment: MIC, CLSI microdilution; format: cell-based; conditions: 20 h, M9 + casamino acids + glucose
Serratia marcescens = experiment: MIC, CLSI microdilution; format: cell-based; conditions: 20 h; Serratia marcescens (ATCC29021); M9 + casamino acids + glucose
[3] = test system: Mycobacterium tuberculosis H37Rv; experiment: MIC, resazurin redox assay; format: cell-based; conditions: ATCC 27294 / H37Rv, 192 h, Mycobacterium tuberculosis H37Rv (ATCC27294)
Mycobacterium marinum = experiment: MIC, CLSI microdilution; format: cell-based; conditions: 7H9 + OADC, 48 h
A. baumannii 19606 [4] = experiment: Fluctuation assay, frequency of spontaneous resistance; format: cell-based, Acinetobacter baumannii; conditions: for frequency of on-target resistance mutations: A. baumannii, 4× or 8× MIC, p0 method; for F.O.R.: P0 method
[5] = test system: carbapenem-resistant A. baumannii clinical isolates; experiment: microbe, parasite or virus in culture; format: cell-based; conditions: Acinetobacter baumannii
[6] = In vivo pharmacokinetic study, 24-h i.v. infusion; design: species or system mouse; conditions: mice; for AUC(0-t): female, CD-1, mouse, whole blood, iv, read-out: exposure AUC0-24
Description: Two female CD-1 mice were given a 750 mg/kg of 24 h i.v. infusion dose of G2. […] Two female CD-1 mice were given a 250 mg/kg of 24-h i.v. infusion dose of G1. Another group of two mice received 250 mg/kg of 24-h i.v. infusion dose of G1 with a 150 mg/kg ABT PO dose of pretreatment at 2 h prior the i.v. infusion. Ten microliters of blood was collected accurately at 0.5, 1, 2, 4, 6, 8, and 24 h after infusion start. Blood samples were then immediately placed into labeled polypropylene micro-centrifuge tubes containing 40 µL of 1.7 mg/mL potassium (K2) EDTA in water, mixed, and then frozen and stored at −70°C until bio-analysis.
G2, G1, ABT, and 4-MP blood concentrations in mouse PK studies were determined by LC-MS/MS. All samples were prepared by protein precipitation. Chromatographic separations were achieved using an ACQUITY CM UPLC system (Waters, Milford, MA) including an ACQUITY BSM solvent delivery system, an ACQUITY SM autosampler, and an ACQUITY CM column oven. For G1, G2, and ABT, an ACQUITY UPLC HSS T3 column (2.1 × 50 mm, 1.8 µm) was used. For 4-MP, an ACQUITY UPLC BEH Amide column (2.1 × 50 mm, 1.7 µm) was used. Gradient elution that contained 0.1% formic acid in water and 0.1% formic acid in acetonitrile was used for G1, ABT, and 4-MP. Gradient elution that contained 0.1% formic acid with 2 mM ammonium formate in water/acetonitrile (vol/vol, 95:5) was used for G2. The LC flow rate was 0.6 mL/min for G1, G2, and ABT, and 0.5 mL/min for 4-MP. The sample injection volume was 1 µL for ABT, G1, and G2, and 2 µL for 4-MP. A QTrap 5500/6500 tandem mass spectrometer (SCIEX, Foster City, CA) with TurboIonSpray interface was operated in positive ionization mode with multiple reaction monitoring (MRM) for LC-MS/MS analysis. The mass spectrometer was operated at unit mass resolution for both Q1 and Q3 quadrupoles. The precursor to product ion transitions of analytes are presented as Q1/Q3 ratios for each compound: 4-MP (83.0/56.1), G1 (383.1/197.1), G2 (399.1/171.0), and ABT (135.0/80.1). The standard curves cover the ranges of 0.005 µg/mL–11.7 µg/mL, 0.005 µg/mL–33.4 µg/mL, 0.05 µg/mL–334 µg/mL, and 1.37 µg/mL–334 µg/mL for G1, G2, ABT, and 4-MP, respectively.

A. baumannii 19606 [7] = experiment: Neutropenic thigh infection model with i.v. GuaBi; conditions: for bacterial load in thigh muscle: neutropenic CD-1 mice, A. baumannii 19606, i.v. infusion with PK boosters, 24 h, high dose groups; for free drug over serum-free MIC at which bactericidal: neutropenic thigh model, A. baumannii
[8] = 24 h, M9 media + 100µM guanine, 24 hours, read-out: A.b.19606 Average CLSI MIC (n=3)
[9] = 24 h, M9 media, 24 hours, read-out: A.b.19606 Average CLSI MIC (n=3)
[10] = A. baumannii 19606 wild-type (Fig 3D), read-out: Avg. MIC
[11] = guaB allele wild-type, M9 media (cross-resistance table), read-out: A.b.19606 Average CLSI MIC (n=3)

For `C[C@@H](Oc1ccc2ncc3c(c2c1)CCOC3)c1cncc(-c2nc(Cl)c[nH]2)c1` [G8, (R)-9-[1-[5-(4-chloro-1H-imidazol-2-yl)-3-pyridyl]ethoxy]-2,4-dihydro-1H-pyrano[3,4 c]quinoline], which MIC [1, 8] is on record?
The MIC was over 100 µM.

And the MIC [1, 9]?
Its MIC is 0.4 µM (≈ 0.163 µg/mL).

What about the MIC [1, 10] of the same molecule?
The MIC was 0.39 µM (≈ 0.159 µg/mL).

What about the MIC [1, 11] of the same molecule?
Its MIC is 0.3 µM (≈ 0.122 µg/mL).

What about the “GuaBi CLSI MIC fold change from parent strain” value ([1]; guaB allele wild-type) of the same molecule?
The value was 1.

And the MIC (Mycobacterium avium)?
Its MIC is 0.04 µM.

And the MIC (Proteus mirabilis)?
Its MIC is over 100 µM.

What about the MIC [2] of the same molecule?
The MIC was 5 µM.

And the MIC (Acinetobacter baumannii)?
The MIC was 1.3 µM.

What about the MIC (Serratia marcescens) of the same molecule?
The MIC was over 100 µM.

And the MIC [3]?
Its MIC is 0.2 µM (≈ 0.0814 µg/mL).

And the MIC (Mycobacterium marinum)?
The MIC was 0.03 µM.

For `C[C@H](Nc1ccc2ncc3c(c2c1)CCOC3)C(=O)Nc1ccc(Cl)nc1` [G1, (2S)-N-(6-chloro-3-pyridyl)-2-(2,4-dihydro-1H-pyrano[3,4-c]quinolin-9 ylamino)propanamide], which MIC [1, 8] is on record?
Its MIC is over 100 µM.

What about the MIC [1, 9] of the same molecule?
Its MIC is 1 µM (≈ 0.383 µg/mL).

And the MIC [1, 10]?
The MIC was 0.69 µM (≈ 0.264 µg/mL).

And the MIC [1, 11]?
Its MIC is 0.5 µM (≈ 0.191 µg/mL).

What about the “GuaBi CLSI MIC fold change from parent strain” value ([1]; guaB allele wild-type) of the same molecule?
The value was 1.

And the MIC (Mycobacterium avium)?
Its MIC is 0.8 µM.

What about the “frequency of on-target resistance mutations” value (A. baumannii 19606 [4]) of the same molecule?
Its value is 6.4 × 10^−11 to 2.9 × 10^−10.

And the MIC50 [5]?
The MIC50 was 3.1 µM (≈ 1.19 µg/mL).

What about the MIC90 [5] of the same molecule?
Its MIC90 is 8 µM (≈ 3.06 µg/mL).

And the MIC (Proteus mirabilis)?
The MIC was over 100 µM.

And the AUC(0-t) ([6]; 24-h i.v. infusion 250 mg/kg, co-administered 150 mg/kg ABT)?
The AUC(0-t) was 692 µM·h.

What about the “exposure higher than without co-administration with ABT” value ([6]; 250 mg/kg 24-h i.v. infusion) of the same molecule?
The value was “fourfold”.

What about the “bacterial load in thigh muscle” value (A. baumannii 19606 [7]) of the same molecule?
The value was “reduced the bacterial load in thigh muscle compared to pre-treatment”.

What about the “free drug over serum-free MIC at which bactericidal” value (A. baumannii 19606 [7]) of the same molecule?
The value was “above 2 × Fu/MIC”.

And the MIC [2]?
The MIC was 14 µM.

And the MIC (Acinetobacter baumannii)?
The MIC was 0.5 µM.

What about the MIC (Serratia marcescens) of the same molecule?
The MIC was over 100 µM.

What about the MIC [3] of the same molecule?
The MIC was 0.3 µM (≈ 0.115 µg/mL).

What about the MIC (Mycobacterium marinum) of the same molecule?
The MIC was 0.01 µM.

Which results are given for `C[C@H](Nc1ccc2ncc(CO)cc2c1)C(=O)Nc1ccc(Cl)c(N(C)C)c1` [G2, (2S)-N-[4-chloro-3-(dimethylamino)phenyl]-2-[[3-(hydroxymethyl)-6-quinolyl]amino]propanamide]?
MIC [1, 8]: > 100 µM; MIC [1, 9]: 4.2 µM (≈ 1.68 µg/mL); MIC [1, 10]: 2 µM (≈ 0.798 µg/mL); MIC [1, 11]: 4.2 µM (≈ 1.68 µg/mL); GuaBi CLSI MIC fold change from parent strain ([1]; guaB allele wild-type): 1; MIC (Mycobacterium avium): 12.5 µM; frequency of on-target resistance mutations (A. baumannii 19606 [4]): 3.6 × 10^−10 to 5.1 × 10^−10; F.O.R. (A. baumannii 19606 [4]; selection 4xMIC (G1 3.1µM; G2 6.4µM)): 3.60E-10; F.O.R. (A. baumannii 19606 [4]; selection 8xMIC (12.8µM)): 5.10E-10; MIC50 [5]: 6.25 µM (≈ 2.49 µg/mL); MIC90 [5]: 16 µM (≈ 6.38 µg/mL); MIC (Proteus mirabilis): > 100 µM; AUC(0-t) ([6]; 24-h i.v. infusion 750 mg/kg, co-administered 150 mg/kg ABT and 100 mg/kg 4-MP): 21300 µM·h; exposure higher than without co-administration with ABT and 4-MP ([6]; 750 mg/kg 24-h i.v. infusion): 100 fold; bacterial load in thigh muscle (A. baumannii 19606 [7]): reduced the bacterial load in thigh muscle compared to pre-treatment; free drug over serum-free MIC at which bactericidal (A. baumannii 19606 [7]): 5 × Fu/MIC; MIC [2]: 38 µM; MIC (Acinetobacter baumannii): 3.1 µM; MIC (Serratia marcescens): > 100 µM; MIC [3]: 2.5 µM (≈ 0.997 µg/mL); MIC (Mycobacterium marinum): 0.1 µM
